In publication PMC8146408 (Viruses, 2021):
Values after ≈ are worked out from the molar mass of the structure shown.

Columns and labels:
[1] = system: HBV replication; test: Antiviral assay (HBV replication luciferase reporter in HuH-7 cells); type: cell-based, Hepatitis B virus; conditions: mean ± SD, at least two independent experiments
[2] = Cytotoxicity assay (XTT); type: cell-based; conditions: human, HepG2 cells, XTT; mean ± SD, at least two independent experiments; read-out: CC50 (concentration of a compound causing 50% cytotoxicity)
[3] = system: HepG2 cells; test: Cytotoxicity assay (XTT); type: cell-based; conditions: for Concentration without cytotoxicity: cytotoxicity assay
[4] = Aqueous solubility (thermodynamic, DPBS); type: physicochemical; conditions: Dulbecco's Phosphate-Buffered Saline (DPBS), aqueous buffer, thermodynamic from solid, pH 7.2, n = 3
[5] = Plasma stability, human plasma; type: in vitro ADME; conditions: pH 7.4, n = 3, read-out: Plasma Stability t1/2
[6] = Plasma stability, mouse plasma; type: in vitro ADME; conditions: CD-1, pH 7.4, n = 3, read-out: Plasma Stability t1/2
[7] = Microsomal stability, human liver microsomes; type: in vitro ADME; conditions: pH 7.4, cofactor NADPH, n = 3, read-out: Microsomal Stability t1/2
[8] = Microsomal stability, mouse liver microsomes; type: in vitro ADME; conditions: pH 7.4, cofactor NADPH, n = 3, read-out: Microsomal Stability t1/2
[9] = biological target: T1, HBV Cp (C150 dimer) (Hepatitis B virus genotype D subtype adw, UniProt P03147, R150C); test: Thermal shift assay (TSA); type: binding; conditions: 20 µM compound, 1% DMSO
T1 construct: made in house; host or cells: E. coli BL21 (DE3), pET11a
T1 sequence (P03147 1-150 R150C): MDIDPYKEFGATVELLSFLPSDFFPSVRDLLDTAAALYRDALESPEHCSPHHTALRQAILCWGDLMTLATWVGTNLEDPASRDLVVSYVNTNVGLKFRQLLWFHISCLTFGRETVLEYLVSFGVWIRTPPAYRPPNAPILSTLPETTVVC

## Cc1cc(NC(=O)c2cnc3nc4ccccc4n3c2C)ccc1F [ZW-1841]
[1]
  EC50 (concentration of a compound inhibiting HBV replication by 50%): single-digit
[2]
  CC50: > 100 µM
[3]
  Concentration without cytotoxicity: ≥ 100 µM
[4]
  solubility at 72 h: 0.31 ± 0.03 µM (≈ 0.104 µg/mL)
[5]
  half-life at 1 µM: > 6 h
[6]
  half-life at 1 µM: > 6 h
[7]
  half-life at 1 µM: > 2 h
[8]
  half-life at 1 µM: 0.543 ± 0.0267 h
[9]
  TSA profile (effect on HBV Cp melting curve): bind to HBV Cp and affect capsid formation and stability

## Cc1cc(NC(=O)c2c(C)[nH]c(=O)c3c(N)n[nH]c23)ccc1F [ZW-1847]
[1]
  EC50 (concentration of a compound inhibiting HBV replication by 50%): single-digit
[2]
  CC50: > 100 µM
[3]
  Concentration without cytotoxicity: ≥ 100 µM
[4]
  solubility at 72 h: 2.14 ± 0.03 µM (≈ 0.675 µg/mL)
[5]
  half-life at 1 µM: > 6 h
[6]
  half-life at 1 µM: > 6 h
[7]
  half-life at 1 µM: > 2 h
[8]
  half-life at 1 µM: > 2 h
[9]
  TSA profile (effect on HBV Cp melting curve): bind to HBV Cp and affect capsid formation and stability

## CC1Oc2c(cccc2C(=O)Nc2cccc(C(F)F)c2)NC1=O (centres unmarked) [ZW-1888]
[2]
  CC50: 47 µM
[3]; HepG2 cells, XTT, mean ± SD, at least two independent experiments, read-out: CC50 (concentration of a compound causing 50% cytotoxicity)
  CC50: 46.6 ± 2.4 µM
[9]
  TSA profile (effect on HBV Cp melting curve): bind to HBV Cp and affect capsid formation and stability

## Cc1cccc(NC(=O)c2cccc(CN3C(=O)CNC3=O)c2)c1 [ZW-1946]
[2]
  CC50: 44.1 ± 0.6 µM

## O=C1NC2(CCCC2)C(=O)N1Cc1cn(-c2ccccc2)nc1-c1ccccc1 [ZW-1889]
[2]
  CC50: 58.2 ± 5.6 µM

## Cc1cc(C)c(CNC(=O)c2cn(Cc3ccccc3)nc2-c2ccccc2)c(=O)[nH]1 [ZW-1918]
[2]
  CC50: 47.6 ± 0.2 µM

## Cc1cc(NC(=O)c2cc(C#N)c(=O)[nH]c2C)ccc1F [ZW-1840]
[2]
  CC50: > 100 µM

## CC1=C(C(=O)Nc2ccc(F)c(C)c2)C=Nc2ccccc2N1 [ZW-1843]
[2]
  CC50: > 100 µM

## Cc1cn2c(C)c(C(=O)Nc3ccc(F)c(C)c3)cnc2n1 [ZW-1842]
[2]
  CC50: > 100 µM

## CSc1c(C(=O)Nc2ccc(F)c(C)c2)c(C)[nH]c(=O)c1C#N [ZW-1845]
[2]
  CC50: > 100 µM

## COc1cccc(N2CC(C(=O)Nc3cccc(Cl)c3C)CC2=O)c1 (centres unmarked) [ZW-1929]
[2]
  CC50: 41.3 ± 1.7 µM
